In patent US7687540B2, “Substituted propane phosphinic acid esters” (Aventis Pharmaceuticals Inc., priority 2005, dated 2010):

Legend:
Male Wistar rats = assay: Chronic Mild Stress Model (CMS), sucrose consumption; type: in vivo; conditions: 3 and 30 mg/kg orally, daily for five weeks; imipramine 10 mg/kg ip
From the text: CMS uses mild stressors, such as food and water deprivation, cage tilts, changes of cage mates, etc. Over a period of weeks of exposure to the mild stressors, the animals gradually reduce their consumption of a highly preferred sucrose solution which persists (in untreated animals) for several weeks following the cessation of stress. This decreased sensitivity to reward (the sucrose solution) reflects anhedonia, a symptom of a major depressive episode (see for example, Behavioral Pharmacol. 5: Suppl. 1, p. 86 (1994) where lithium, carbamazepine and ketoconazole were evaluated in CMS; Psychopharmacology 93:358-364 (1987) where a tricyclic antidepressant was evaluated in CMS; Behavioral Pharmacology: 5:344-350 (1994) where a catechol-O-methyl transferase inhibitor was evaluated in CMS). […]
The animals are first trained to consume a 1% sucrose solution; training consists of eight 1 hour baseline tests in which sucrose is presented, in the home cage, following 14 hours food and water deprivation; intake is measured by weighing pre-weighed bottles containing the sucrose solution at the end of the test. Subsequently, sucrose consumption is monitored, under similar conditions, at weekly intervals throughout the whole experiment. […]
Results are analyzed by multiple analysis of variance, followed by Fisher's LSD test for post hoc comparisons of means.

[1] = Brain levels after oral dosing in mice by LC/MS/MS; type: in vivo, Male CD1 mice; conditions: brains collected at 2, 4 and 7 hrs post-dose after oral dosing of test compounds
Description: Animals: Male CD1 mice (Charles River) weighing about 25 g—with free access to food and water.
Dose Groups The compounds of this invention were administered to the test animals at a dose, which is molar equivalent to 10 mg/kg of the parent compound, ((R)-3-amino-2-hydroxy-propyl)-cyclohexylmethyl-phosphinic acid. Each of the test compounds was formulated at this dose level to yield a dose volume of 10 mL/kg and administered by oral gavage to a group of three mice per time point in each study group. Formulations: The compounds of this invention were dissolved in vehicle of 0.2% Tween 80 and 0.5% methylcellulose (MC) at a concentration of about 1 mg/mL. Samples: The blood samples (for plasma) were collected at the following time points: 5, 15 30 and 45 min […]; and 1, 2, 3, 4, 5, and 7 hrs post-dose. Brains were collected at 2, 4 and 7 hrs post-dose Blood Handling The blood samples were added to tubes containing 20 μL of a stock 10 mg/ml solution of sodium fluoride. The blood tubes were then stored in a refrigerator at approximately about 4° C. […] Bioanalysis: All plasma and brain samples were then analyzed for concentrations of the test compound as well as the parent compound, ((R)-3-amino-2-hydroxy-propyl)-cyclohexylmethyl-phosphinic acid by LC/MS/MS. […]
Whereas, in most cases, the levels of the test compound was too small to be detected for all of the test compounds analyzed.

NC[C@@H](O)CP(=O)(O)CC1CCCCC1 [parent compound, ((R)-3-amino-2-hydroxy-propyl)-cyclohexylmethyl-phosphinic acid]
activity in CMS (sucrose intake) compared with imipramine (Male Wistar rats): equal to that of imipramine
concentration of the parent compound in brain [1]: proportional to the concentration of the parent compound in plasma
